In brackets after ≈: the same amount, converted by molar mass.

For data set [1] the following is noted: ornithine transcarbamylase-deficient patients, median dose 352 mg/kg/day, 26-month follow-up; cited from earlier work.
For data set [2], the system named is HP 238. Briefly: Disc diffusion assay against HP for various compounds, HP 238. The format is cell-based, Helicobacter pylori. The following applies: for Disc diffusion diameter: 40 μl on 8 mm disc, 48 hours; for anti-HP activity compared to other compounds: HP 238 lawn, disc diffusion. A general note: Agar diffusion results depend on both activity and mobility in agar.

Data set [3] deals with HP 43504. Briefly: Disc diffusion assay against HP for various compounds, HP 43504. The following applies: for Disc diffusion diameter: 40 μl on 8 mm disc, 48 hours; for anti-HP activity compared to other compounds: HP 43504 lawn, disc diffusion. The format is cell-based, Helicobacter pylori.
The subject of data set [4] is H. pylori ATCC43504 (HP 43504). Put plainly: Minimum inhibitory concentration (MIC) against HP 43504. It counts as cell-based. The following applies: Helicobacter pylori. How it is done: (§1) The HP strains used in the present studies are H. pylori ATCC43504 (HP 43504) and HP 238. HP 238 was isolated from a patient with MALToma in National Cheng Kung University Hospital, Tainan, Taiwan, and used as an antibiotic sensitive control. These strains were cultured under a microaerophilic condition (O2 5%, CO2 10%, N2 85%) in a 37° C. chamber.

Data set [5] concerns HP 43504. Put plainly: Disc diffusion assay against HP for PB plus various antibiotics, HP 43504. To be noted: HP 43504, CDC agar, 8 mm disc, 48 hours; AMO 0.015 μg/20 μl, MTZ 5 μg/20 μl, TC 0.5 μg/20 μl, plus 20 μl water or 4-PB 2 mg/20 μl. The format is cell-based, Helicobacter pylori. How it is done: HP 43504 and […] were further used for testing PB in combination with various antibiotics in disc diffusion assays. After 2 days' pre-culture in a microaerophilic condition (O2 5%, CO2 10%, N2 85%) at 37° C., HP was suspended in a Brucella broth containing 5% sucrose to adjust its clone density at 1×10^8 CFU/ml. Then 100 μl of the bacterial suspension was inoculated onto a CDC agar plate. […] The agar plates were later transferred to a microaerobic jar to incubate at 37° C. The diameter of each inhibition zone (clear zone size) in the bacterial lawn was measured 48 hours later. The tested combinations used in this experiment comprised 4-PB (50 mg/ml) with amoxicillin (AMO), metronidazole (MTZ) or tetracycline (TC).

In data set [6] the test system is HP 238. Briefly: Disc diffusion assay against HP for PB plus various antibiotics, HP 238. It counts as cell-based, Helicobacter pylori. To be noted: HP 238, CDC agar, 8 mm disc, 48 hours; AMO 0.015 μg/20 μl, MTZ 5 μg/20 μl, TC 0.5 μg/20 μl, plus 20 μl water or 4-PB 2 mg/20 μl. How it is done: HP 43504 and HP 2378 were further used for testing PB in combination with various antibiotics in disc diffusion assays. After 2 days' pre-culture in a microaerophilic condition (O2 5%, CO2 10%, N2 85%) at 37° C., HP was suspended in a Brucella broth containing 5% sucrose to adjust its clone density at 1×10^8 CFU/ml. Then 100 μl of the bacterial suspension was inoculated onto a CDC agar plate. […] The agar plates were later transferred to a microaerobic jar to incubate at 37° C. The diameter of each inhibition zone (clear zone size) in the bacterial lawn was measured 48 hours later. […]

Data set [7] has as its system HP 238. Briefly: Minimum inhibitory concentration (MIC) against HP 238. It counts as cell-based. To be noted: Helicobacter pylori; against clinically isolated strain HP 238. How it is done:
as §1

Setting [8] is: HP 238, Brucella agar, 50 mg/ml.
[9] abbreviates: HP 238, Brucella agar, 100 mg/ml.
Setting [10] is: HP 43504, Brucella agar, 50 mg/ml.
Setting [11] is: HP 43504, Brucella agar, 100 mg/ml.
[12] abbreviates: HP 238, 100 mg/ml, no clear zone outside the paper disc.
Setting [13] is: HP 43504, 100 mg/ml, no clear zone outside the paper disc.

Regarding 4-phenylbutyrate [4-PB], the “side effects related to therapy” value in data set [1] is reported as “neither hyperammonemic episodes requiring hospitalization nor side effects related to therapy occurred”. Also, the Disc diffusion diameter in the data set on HP 238 [2] (HP 238, Brucella agar, 5 mg/ml) stood at 8 mm; in the data set on HP 238 [2] (HP 238, Brucella agar, 25 mg/ml), 26 mm; with HP 238 [2] (setting [8]), 40 mm; in the data set on HP 238 [2] (setting [9]) it was 64 mm; with HP 238 [2] (HP 238, CDC agar, 5 mg/ml), 8 mm; with HP 238 [2] (HP 238, CDC agar, 25 mg/ml) it was 9 mm. Moreover, the Disc diffusion diameter with HP 238 [2] (HP 238, CDC agar, 50 mg/ml) amounted to 23 mm; in the data set with HP 43504 [3] (HP 43504, Brucella agar, 5 mg/ml), 8 mm; with HP 43504 [3] (HP 43504, Brucella agar, 25 mg/ml) it was 8 mm; in the data set on HP 43504 [3] (setting [10]) it was 33 mm; in the data set on HP 43504 [3] (setting [11]), 45 mm; with HP 43504 [3] (HP 43504, CDC agar, 5 mg/ml), 8 mm. The Disc diffusion diameter was 8 mm in the data set on HP 43504 [3] (HP 43504, CDC agar, 25 mg/ml) and 17 mm in the data set on HP 43504 [3] (HP 43504, CDC agar, 50 mg/ml). The “anti-HP activity compared to other compounds” value in the data set with HP 238 [2] and in the data set on HP 43504 [3] was “much better anti-HP activity” each time.

Turning to `NCCC(N)C(=O)O` (centres unmarked) [2,4-DAB, 2,4-diaminobutyric acid], the anti-HP activity entry with HP 238 [2] (setting [12]) and in the data set with HP 43504 [3] (setting [13]) was “no obvious anti-HP activity” each time. Moreover, the Disc diffusion diameter in the data set with HP 238 [2] (setting [9]) was 8 mm; in the data set with HP 238 [2] (HP 238, CDC agar, 100 mg/ml), 8 mm; in the data set on HP 43504 [3] (setting [11]), 8 mm; in the data set with HP 43504 [3] (HP 43504, CDC agar, 100 mg/ml), 8 mm.

For `CCC(N)C(=O)O` (centres unmarked) [2-AB, 2-aminobutyric acid], the anti-HP activity result with HP 238 [2] (setting [12]) and in the data set with HP 43504 [3] (setting [13]) was “no obvious anti-HP activity” each time. Also, the Disc diffusion diameter turned out to be 8 mm with HP 238 [2] (setting [9]); 8 mm in the data set on HP 238 [2] (HP 238, CDC agar, 100 mg/ml); 8 mm with HP 43504 [3] (setting [11]); 8 mm in the data set with HP 43504 [3] (HP 43504, CDC agar, 100 mg/ml).

Consider `CCC(C(=O)O)c1ccccc1` (centres unmarked) [2-PB, 2-phenylbutyrate], for which the Disc diffusion diameter with HP 238 [2] (setting [8]) was 24 mm; with HP 238 [2] (HP 238, CDC agar, 50 mg/ml) it was 14 mm; in the data set with HP 43504 [3] (setting [10]), 18 mm; with HP 43504 [3] (HP 43504, CDC agar, 50 mg/ml), 8 mm. Besides, the “anti-HP activity compared to other compounds” value with HP 238 [2] and with HP 43504 [3] was “much better anti-HP activity” throughout.

For the molecule `CCCC(=O)[O-].[Na+]` [Butyrate, Sodium butyrate], the Disc diffusion diameter stood at 11 mm in the data set on HP 238 [2] (HP 238, CDC agar, 50 mg/ml) and 8 mm with HP 43504 [3] (HP 43504, CDC agar, 50 mg/ml). The disc diffusion capacity result was “much smaller than 4-PB or 2-PB” in the data set on HP 238 [2] (HP 238, compared with 4-PB or 2-PB) and “much smaller than 4-PB or 2-PB” in the data set with HP 43504 [3] (HP 43504, compared with 4-PB or 2-PB).

For `NCCCC(=O)O` [GABA, gama-aminobutyric acid], the anti-HP activity entry in the data set on HP 238 [2] (setting [12]) and with HP 43504 [3] (setting [13]) was “no obvious anti-HP activity” throughout. Besides, the Disc diffusion diameter with HP 238 [2] (setting [9]) is on record as 8 mm; with HP 238 [2] (HP 238, CDC agar, 100 mg/ml), 8 mm; in the data set on HP 43504 [3] (setting [11]), 8 mm; in the data set with HP 43504 [3] (HP 43504, CDC agar, 100 mg/ml), 8 mm.

On to `CCCC(CCC)C(=O)[O-].[Na+]` [Valproate, sodium valproate], for which the anti-HP activity result in the data set with HP 238 [2] (HP 238, 2 mg/ml to 16 mg/ml) is “no obvious anti-HP activity”; in the data set on HP 43504 [3] (HP 43504, 2 mg/ml to 16 mg/ml) it was “no obvious anti-HP activity”. The Disc diffusion diameter in the data set on HP 238 [2] (HP 238, CDC agar, 2 mg/ml) is 8 mm; with HP 238 [2] (HP 238, CDC agar, 4 mg/ml), 8 mm; in the data set with HP 238 [2] (HP 238, CDC agar, 8 mg/ml), 8 mm; in the data set with HP 238 [2] (HP 238, CDC agar, 16 mg/ml) it was 8 mm; in the data set on HP 43504 [3] (HP 43504, CDC agar, 2 mg/ml) it was 8 mm; in the data set with HP 43504 [3] (HP 43504, CDC agar, 4 mg/ml), 8 mm. In addition, the Disc diffusion diameter with HP 43504 [3] (HP 43504, CDC agar, 8 mg/ml) is given as 8 mm; in the data set with HP 43504 [3] (HP 43504, CDC agar, 16 mg/ml), 8 mm.

As to `CC1(C)S[C@@H]2[C@H](NC(=O)[C@H](N)c3ccc(O)cc3)C(=O)N2[C@H]1C(=O)O` [amoxicillin], the MIC in data set [4] turned out to be 0.12 µg/mL (≈ 0.328 µM). For the same molecule, the “diameter of inhibition zone (clear zone size)” value (“diameter of inhibition zone” below) in the data set on HP 43504 [5] and with HP 238 [6] was 8 mm each time.

`Cc1ncc([N+](=O)[O-])n1CCO` [metronidazole]: the MIC was determined as 256 µg/mL (≈ 1500 µM) in data set [4] and 0.25 µg/mL (≈ 1.46 µM) in the data set on HP 238 [7]. Besides, the “diameter of inhibition zone” value is 8 mm with HP 43504 [5] and 16 mm with HP 238 [6].

For `CN(C)[C@@H]1C(O)=C(C(N)=O)C(=O)[C@@]2(O)C(O)=C3C(=O)c4c(O)cccc4[C@@](C)(O)[C@H]3C[C@@H]12` [tetracycline], it took 1 µg/mL (≈ 2.25 µM) to inhibit growth in data set [4] (MIC). Also, the “diameter of inhibition zone” value is 8 mm in the data set with HP 43504 [5] and 15 mm with HP 238 [6].

Broadly, the MIC is the lowest concentration that inhibits growth of the organism. A lower MIC goes with inhibition by little substance.

The values are drawn from patent US20070021508A1, “Method for treatment of Helicobacter pylori infection and/or an associated disease” (priority 2005, published 2007).
